Counter-ions that a name gives are not always drawn.
Molecular target: T1, HCV polymerase (Hepatitis C virus genotype 1b, UniProt P26663)
T1 construct: a region encoding NS5B (591 amino acids; J Virol 1991 Mar, 65(3), 1105-13) was amplified by PCR; 6 His (N); made in house; host or cells: Escherichia coli
Assay: biochemical
Details: read-out: HCV polymerase inhibitory activity IC50

T1 sequence (P26663 2420-3010): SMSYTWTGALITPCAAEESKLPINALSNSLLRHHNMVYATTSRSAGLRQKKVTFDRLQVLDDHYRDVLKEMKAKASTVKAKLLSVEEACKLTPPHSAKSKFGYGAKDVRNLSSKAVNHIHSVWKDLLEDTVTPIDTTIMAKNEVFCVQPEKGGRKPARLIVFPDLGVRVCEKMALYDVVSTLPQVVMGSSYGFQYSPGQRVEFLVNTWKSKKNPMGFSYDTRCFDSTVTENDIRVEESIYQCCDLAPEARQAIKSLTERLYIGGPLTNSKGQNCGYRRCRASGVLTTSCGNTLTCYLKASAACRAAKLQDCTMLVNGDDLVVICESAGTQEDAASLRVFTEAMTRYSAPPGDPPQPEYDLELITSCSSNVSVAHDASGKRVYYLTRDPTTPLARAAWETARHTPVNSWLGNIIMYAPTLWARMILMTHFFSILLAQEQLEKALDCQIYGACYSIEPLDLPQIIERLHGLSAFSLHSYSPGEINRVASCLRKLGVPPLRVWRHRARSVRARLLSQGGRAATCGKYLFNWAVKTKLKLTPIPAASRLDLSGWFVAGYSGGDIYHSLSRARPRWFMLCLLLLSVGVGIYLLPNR

SMILES	IC50 [µM]
CN(C)C(=O)c1cc(COc2ccc(-c3nc4cc(C(=O)O)ccc4n3C3CCCCC3)c(F)c2)c(-c2ccc(F)cc2)s1 [Example 431, 2-{4-[{2-(4-fluorophenyl)-5-(dimethylcarbamoyl)thiophen-3-yl}methoxy]-2-fluorophenyl}-1-cyclohexylbenzimidazole-5-carboxylic acid hydrochloride]	0.015
CC(C)NC(=O)c1cc(COc2ccc(-c3nc4cc(C(=O)O)ccc4n3C3CCCCC3)c(F)c2)c(-c2ccc(F)cc2)s1 [Example 432, 2-{4-[{2-(4-fluorophenyl)-5-(isopropylcarbamoyl)thiophen-3-yl}methoxy]-2-fluorophenyl}-1-cyclohexylbenzimidazole-5-carboxylic acid hydrochloride]	0.022
O=C(O)c1ccc2c(c1)nc(-c1ccc(OCc3cc(C(=O)N4CCC(O)CC4)sc3-c3ccc(F)cc3)cc1F)n2C1CCCCC1 [Example 433, 2-{4-[{2-(4-fluorophenyl)-5-(4-hydroxypiperidin-1-ylcarbonyl)thiophen-3-yl}methoxy]-2-fluorophenyl}-1-cyclohexylbenzimidazole-5-carboxylic acid hydrochloride]	0.014
O=C(O)c1ccc(-c2ccc(Cl)cc2COc2ccc(-c3nc4cc(-c5nnn[nH]5)ccc4n3C3CCCCC3)c(F)c2)cc1 [Example 435, 2-{4-[2-(4-carboxyphenyl)-5-chlorobenzyloxy]-2-fluorophenyl}-1-cyclohexyl-5-tetrazol-5-ylbenzimidazole hydrochloride]	0.012
CC(C)NC(=O)c1ccc(-c2ccc(Cl)cc2)c(COc2ccc(-c3nc4cc(-c5noc(=O)[nH]5)ccc4n3C3CCCCC3)c(F)c2)c1 [Example 436, 2-{4-[2-(4-chlorophenyl)-5-(isopropylcarbamoyl)benzyloxy]-2-fluorophenyl}-1-cyclohexyl-5-(2,5-dihydro-5-oxo-4H-1,2,4-oxadiazol-3-yl)benzimidazole hydrochloride]	0.026
O=C(O)c1ccc2c(c1)nc(-c1cc(C(c3cccc(F)c3)c3cccc(F)c3)c(O)cc1F)n2C1CCCCC1 [Example 440, 2-{5-[bis(3-fluorophenyl)methyl]-2-fluoro-4-hydroxyphenyl}-1-cyclohexylbenzimidazole-5-carboxylic acid]	0.07
CN(C)C(=O)c1cccc(C(Oc2ccc(-c3nc4cc(C(=O)O)ccc4n3C3CCCCC3)c(F)c2)c2ccc(F)cc2)c1 (centres unmarked) [Example 442, 2-{4-[(3-dimethylcarbamoylphenyl)(4-fluorophenyl)methoxy]-2-fluorophenyl}-1-cyclohexylbenzimidazole-5-carboxylic acid hydrochloride]	0.024
O=C(O)c1ccc2c(c1)nc(-c1ccc(OC(c3ccc(F)cc3)c3cccc(C(=O)N4CCC(O)CC4)c3)cc1F)n2C1CCCCC1 (centres unmarked) [Example 443, 2-{4-[{3-(4-hydroxypiperidyl-1-ylcarbonyl)phenyl}(4-fluorophenyl)methoxy]-2-fluorophenyl}-1-cyclohexylbenzimidazole-5-carboxylic acid hydrochloride]	0.03
O=C(O[C@@H]1O[C@H](C(=O)O)[C@@H](O)[C@H](O)[C@H]1O)c1ccc2c(c1)nc(-c1ccc(OC(c3cccc(F)c3)c3cccc(F)c3)cc1F)n2C1CCCCC1 [Example 445, {[2-{4-[bis(3-fluorophenyl)methoxy]-2-fluorophenyl}-1-cyclohexylbenzimidazol-5-yl]carbonyl}-β-D-glucuronic acid]	0.33
O=C(O)c1ccc2c(c1)nc(-c1ccc(OCc3cc(N4CCCS4(=O)=O)ccc3-c3ccc(Cl)cc3)cc1F)n2C1CCCCC1 [Example 446, 2-{4-[2-(4-chlorophenyl)-5-(1,1-dioxoisothiazolidin-2-yl)benzyloxy]-2-fluorophenyl}-1-cyclohexylbenzimidazole-5-carboxylic acid hydrochloride]	0.016
CC(C)NC(=O)c1ccc(-c2ccc(Cl)cc2)c(COc2ccc(-c3nc4cc(S(N)(=O)=O)ccc4n3C3CCCCC3)c(F)c2)c1 [Example 447, 3-{[4-(5-aminosulfonyl-1-cyclohexylbenzimidazol-2-yl)-3-fluorophenoxy]methyl}-4-(4-chlorophenyl)-N-isopropylbenzamide]	0.12
CC(C)NC(=O)c1cccc(-c2ccc(Cl)cc2)c1COc1ccc(-c2nc3cc(C(=O)O)ccc3n2C2CCCCC2)c(F)c1 [Example 448, 2-[4-{2-(4-chlorophenyl)-6-(isopropylaminocarbonyl)benzyloxy}-2-fluorophenyl]-1-cyclohexylbenzimidazole-5-carboxylic acid hydrochloride]	0.2
O=C(O)c1ccc2c(c1)nc(-c1ccc(OCc3cc(N4CCCS4(=O)=O)c(F)cc3-c3ccc(Cl)cc3)cc1F)n2C1CCCCC1 [Example 449, 2-[4-{2-(4-chlorophenyl)-4-fluoro-5-(1,1-dioxoisothiazolidin-2-yl)benzyloxy}-2-fluorophenyl]-1-cyclohexylbenzimidazole-5-carboxylic acid hydrochloride]	0.025
COc1c(C(=O)O)ccc2c1nc(-c1ccc(OCc3cc(C(=O)NC(C)C)ccc3-c3ccc(Cl)cc3)cc1F)n2C1CCCCC1 [Example 450, 2-[4-{2-(4-chlorophenyl)-5-(isopropylaminocarbonyl)benzyloxy}-2-fluorophenyl]-1-cyclohexyl-4-methoxybenzimidazole-5-carboxylic acid hydrochloride]	0.04
CC(C)C(=O)N(C)c1ccc(-c2ccc(Cl)cc2)c(COc2ccc(-c3nc4cc(C(=O)O)ccc4n3C3CCCCC3)c(F)c2)c1 [Example 451, 2-[4-{2-(4-chlorophenyl)-5-(N-isopropylcarbonyl-N-methylamino)benzyloxy}-2-fluorophenyl]-1-cyclohexylbenzimidazole-5-carboxylic acid hydrochloride]	0.031
CC(C)C(=O)Nc1ccc(-c2ccc(Cl)cc2)c(COc2ccc(-c3nc4cc(C(=O)O)ccc4n3C3CCCCC3)c(F)c2)c1 [Example 452, 2-[4-{2-(4-chlorophenyl)-5-(isopropylcarbonylamino)benzyloxy}-2-fluorophenyl]-1-cyclohexylbenzimidazole-5-carboxylic acid hydrochloride]	0.028
O=C(O)c1ccc2c(c1)nc(-c1ccc(OCc3cc(N4CCCC4=O)c(F)cc3-c3ccc(Cl)cc3)cc1F)n2C1CCCCC1 [Example 454, 2-[4-{2-(4-chlorophenyl)-4-fluoro-5-(2-oxopyrrolidin-1-yl)benzyloxy}-2-fluorophenyl]-1-cyclohexylbenzimidazole-5-carboxylic acid hydrochloride]	0.013
CS(=O)(=O)Nc1ccc(-c2ccc(Cl)cc2)c(COc2ccc(-c3nc4cc(C(=O)O)ccc4n3C3CCCCC3)c(F)c2)c1 [Example 455, 2-[4-{2-(4-chlorophenyl)-5-(methylsulfonylamino)benzyloxy}-2-fluorophenyl]-1-cyclohexylbenzimidazole-5-carboxylic acid hydrochloride]	0.015
CN(c1ccc(-c2ccc(Cl)cc2)c(COc2ccc(-c3nc4cc(C(=O)O)ccc4n3C3CCCCC3)c(F)c2)c1)S(C)(=O)=O [Example 456, 2-[4-{2-(4-chlorophenyl)-5-[N-methyl-N-(methylsulfonyl)amino]benzyloxy}-2-fluorophenyl]-1-cyclohexylbenzimidazole-5-carboxylic acid hydrochloride]	0.017
O=C(O)c1ccc2c(c1)nc(-c1ccc(OCc3nc(N4CCCC4=O)ccc3-c3ccc(Cl)cc3)cc1F)n2C1CCCCC1 [Example 457, 2-[4-{[3-(4-chlorophenyl)-6-(2-oxopyrrolidin-1-yl)pyridin-2-yl]methyloxy}-2-fluorophenyl]-1-cyclohexylbenzimidazole-5-carboxylic acid hydrochloride]	0.015
CC(=O)Nc1ccc(-c2ccc(Cl)cc2)c(COc2ccc(-c3nc4cc(C(=O)O)ccc4n3C3CCCCC3)c(F)c2)c1 [Example 458, 2-[4-{2-(4-chlorophenyl)-5-(acetylamino)benzyloxy}-2-fluorophenyl]-1-cyclohexylbenzimidazole-5-carboxylic acid hydrochloride]	0.015
CCCN(C(C)=O)c1ccc(-c2ccc(Cl)cc2)c(COc2ccc(-c3nc4cc(C(=O)O)ccc4n3C3CCCCC3)c(F)c2)c1 [Example 460, 2-[4-{2-(4-chlorophenyl)-5-(N-acetyl-N-propylamino)benzyloxy}-2-fluorophenyl]-1-cyclohexylbenzimidazole-5-carboxylic acid hydrochloride]	0.017
CCN(c1ccc(-c2ccc(Cl)cc2)c(COc2ccc(-c3nc4cc(C(=O)O)ccc4n3C3CCCCC3)c(F)c2)c1)S(C)(=O)=O [Example 461, 2-[4-{2-(4-chlorophenyl)-5-[N-ethyl-N-(methylsulfonyl)amino]-benzyloxy}-2-fluorophenyl]-1-cyclohexylbenzimidazole-5-carboxylic acid hydrochloride]	0.021
CCCN(c1ccc(-c2ccc(Cl)cc2)c(COc2ccc(-c3nc4cc(C(=O)O)ccc4n3C3CCCCC3)c(F)c2)c1)S(C)(=O)=O [Example 462, 2-[4-{2-(4-chlorophenyl)-5-[N-(methylsulfonyl)-N-propylamino]benzyloxy}-2-fluorophenyl]-1-cyclohexylbenzimidazole-5-carboxylic acid hydrochloride]	0.028
CC(=O)N(C)c1ccc(-c2ccc(Cl)cc2)c(COc2ccc(-c3nc4cc(C(=O)O)ccc4n3C3CCCCC3)c(F)c2)c1 [Example 463, 2-[4-{2-(4-chlorophenyl)-5-(N-acetyl-N-methylamino)benzyloxy}-2-fluorophenyl]-1-cyclohexylbenzimidazole-5-carboxylic acid hydrochloride]	0.026
CCS(=O)(=O)N(C)c1ccc(-c2ccc(Cl)cc2)c(COc2ccc(-c3nc4cc(C(=O)O)ccc4n3C3CCCCC3)c(F)c2)c1 [Example 464, 2-[4-{2-(4-chlorophenyl)-5-[N-(ethylsulfonyl)-N-methylamino]-benzyloxy}-2-fluorophenyl]-1-cyclohexylbenzimidazole-5-carboxylic acid hydrochloride]	0.03
